Reference: patent US20240325394A1, “SALT AND CRYSTAL FORM OF NITROGEN-CONTAINING HETEROCYCLIC DERIVATIVE, PREPARATION METHOD THEREFOR AND APPLICATION THEREOF” (SHANGHAI HANSOH BIOMEDICAL CO., LTD., priority 2020, published 2024)
Like-named read-outs stand apart in the source and are kept apart here. Each block holds one compound with its values, some of them ahead of it.

Assays:
[1] = tested on: NCI-H358 cells (KRAS G12C mutant); assay: Inhibition of NCI-H358 cell proliferation (CellTiter-Glo, 72 h); type: cell-based, human
Description: (§1) When NCI-H358 or Mia PaCa-2 cells were cultured to the appropriate fusion level, the NCI-H358 or Mia PaCa-2 cells were collected, and the cells were adjusted to the appropriate cell concentration using a complete medium, and the cell suspension was spread in a 96-well plate, 90 μL per well, and placed in a 37° C., 5% CO2 incubator overnight; and compound solutions of different concentrations were prepared using DMSO and culture medium; and a solvent control was set, the compound solution was added to a 96-well plate, 10 μL per well, at 37° C. in a 5% CO2 incubator for 72 hours; CellTiter-Glo solution was added thereto and the mixture was mixed well by shaking, incubated for 10 min in the dark, and read by BioTek Synergy H1 microplate reader.
(§2) The luminescence signal values were used to calculate the inhibition rate, the concentration and the inhibition rate were fitted to a nonlinear regression curve using Graphpad Prism software, then the IC50 value was obtained.

[2] = tested on: Mia PaCa-2 cells (KRAS G12C mutant); assay: Inhibition of Mia PaCa-2 cell proliferation (CellTiter-Glo, 72 h); type: cell-based, human
Description: as §1, §2

human KRAS G12C protein = target: T1, human KRAS G12C protein (Homo sapiens, UniProt P01116, G12C); assay: Thermal shift: melting temperature of KRAS G12C protein; type: binding; settings: for Tm: KRAS G12C protein 5.37 μM with compound 10 μM, 1 hour; for ΔTm at 10 µM: Tm minus Tm of DMSO solvent control, compound 10 μM
T1 construct: purchased Beijing SinoBiological Co., Ltd. 12259-H07E2
Description: In this experiment, the thermal shift method was used to test the degree of change in the melting temperature (Tm) of the KRAS G12C protein before and after the binding of the compound, in order to characterize the ability of the compound to improve the stability of the KRAS G12C protein.
The specific experiment operation was as follows: • A solution containing […] (pH 7.5), 1 mM DTT, 5× SYPRO Orange and 150 mM NaCl was prepared as the experimental buffer, and a final concentration of 5.37 μM human KRAS G12C protein was added thereto. The reaction mixture was divided into 8 rows of PCR tubes, each 19.5 μL, and 0.5 μL of the test compound or DMSO were added respectively, so that the total reaction system was 20 μL, the final concentration of the compound was 10 μM, and 2.5% DMSO was set as the solvent control. After incubating at room temperature in the dark for 1 hour, the PCR tube was put into the PCR instrument, QuantStudio Software v1.3 was opened, and the melting temperature of KRAS G12C protein in different treatment groups was detected by melt curve function (heating from 25° C. to 95° C., 0.03° C./s).
The experimental data file of PCR instrument was imported into thermal shift software, and the melting temperature (Tm) of each treatment group was obtained, and the change value of melting temperature (ATm) was obtained by subtracting the Tm of DMSO solvent control group.

[3] = Plasma stability, human plasma; type: in vitro ADME; settings: human
Description: (§3) Animal or human whole blood was collected, then the blood was put into a test tube containing anticoagulant, centrifuged at 3500 rpm for 10 min, and the upper layer of pale yellow plasma was collected. • 2) 10 μM of tested compound (m/M/V=C)
(§4) The compound was weighed, the stock solution was prepared with DMSO and the working solution was prepared with 100 mM phosphate buffer. • 3) 10 μM of positive control • (1) Propantheline (Propantheline Mr=449.4 Da)
(§5) • 1) 285 μL of plasma and 15 μL of 10 μM compound (tested compound) were added in turn in a 96-well plate, and incubated at 37° C. • 2) 40 μL was taken out at 0, 15, 30, 60, 90, 120 min, respectively, and 160 μL of acetonitrile termination solution containing internal standard was added. • 3) After centrifugation (3500 rpm, 10 min), 50 μL of supernatant was taken out, and then diluted with 50 μL DDH2O and injected to LC-MS/MS.
(§6) • instrument: Shimadzu LC-20 AD • chromatographic column: phenomenex Gemiu® C18 (50*4.6 mm, 5 μM particle size); • mobile phase: A: acetonitrile, B: 0.1% formic acid solution 0-8 min: 5% A→95% A, 2.0-2.1 min: 90% A→5% A; flow rate: 0.8 mL/min; running time: 5.0 min; injection volume: 5 μL.
(§7) • instrument: API4000 Liquid Chromatography-Mass Spectrometry, AB, USA; • the ion source was electrospray ionization source (ESI); • the temperature of dry gas (N2) was 500° C.; • electrospray voltage was 5500V; • the detection method was positive ion detection; • the scanning mode was selective response monitoring (MRM); • the scanning time was 0.1 s.

[4] = Plasma stability, rat plasma; type: in vitro ADME
Description: as §3, §4, §5, §6, §7

[5] = Plasma stability, mouse plasma; type: in vitro ADME
Description: as §3, §4, §5, §6, §7

[6] = Plasma stability, dog plasma; type: in vitro ADME
Description: as §3, §4, §5, §6, §7

[7] = Pharmacokinetics in MiaPaca 2 tumor-bearing mice (plasma, tumor tissue); type: in vivo; settings: female, mouse, po, p.o. 6 mg/kg
Description: The pharmacokinetic behavior of the compound of the embodiment 13-1 and AMG-510 compound, administered orally at a dose of 6 mg/kg, in mice (plasma, tumor tissue and intestine) was studied using MiaPaca 2 tumor-bearing mice as test animals.
24 MiaPaca 2 tumor-bearing mice, females. 3 for each time point (0 h, 1 h, 2 h, 4 h, 6 h, 8 h, 16 h, 24 h). Shanghai xipuer-bikai Laboratory Animal Co., Ltd, Animal Production License No. (SCXK (Shanghai) 2018-0006.
Embodiment compound 13-1 and compound AMG-510 were weighed and dissolved in the solution, the mixture was shaken well, and ultrasound was performed for 15 minutes to obtain a uniform suspension with a concentration of 0.6 mg/mL.
MiaPaca 2 tumor-bearing mice were administered at a dose of 6 mg/kg in a volume of 10 mL/kg, respectively, based on body weight p.o. after fasting (animals were not administered at point 0 h).
Before and after administration, mice were sacrificed with CO2, 0.5 mL blood was collected from the heart and placed in EDTA-2K tube, centrifuged at 4° C. […] The duodenum, ileum and colon tissues were cut with scissors, the contents were removed and cleaned twice with PBS, after absorbing water with absorbent paper, they were weighed, placed in a 2 mL centrifuge tube and stored at −80° C.

IC50 ([1]; Homo sapiens, NCI-H358, 72 h): 0.014 µM
IC50 ([2]; Homo sapiens, MIA PaCa-2, 72 h): 0.041 µM
Tm (human KRAS G12C protein): 61.5 °C
ΔTm at 10 µM (human KRAS G12C protein): 10.9 °C
SMILES: C=CC(=O)N1CCN(c2nc(=O)n(-c3c(SC)ccnc3C(C)C)c3nc(-c4c(O)cccc4F)c(Cl)cc23)[C@@H](C)C1 [Embodiment 3, 4-((S)-4-Acryloyl-2-methylpiperazin-1-yl)-6-chloro-7-(2-fluoro-6-hydroxyphenyl)-1-(2-isopropyl-4-(methylthio)pyridin-3-yl)pyrido[2,3-d]pyrimidin-2(1H)-one]

IC50 ([1]; Homo sapiens, NCI-H358, 72 h): 0.079 µM
IC50 ([2]; Homo sapiens, MIA PaCa-2, 72 h): 0.068 µM
SMILES: C=CC(=O)N1CCN(c2nc(=O)n(-c3c(SC)ccnc3C(C)C)c3nc(-c4c(F)cccc4F)c(Cl)cc23)[C@@H](C)C1 [Embodiment 12, (S)-4-(4-acryloyl-2-methylpiperazin-1-yl)-7-(2,6-difluorophenyl)-6-chloro-1-(2-isopropyl-4-(methylthio)pyridin-3-yl)pyrido[2,3-d]pyrimidin-2(1H)-one]

More lines, now with the values behind:

SMILES: C=CC(=O)N1CCN(c2nc(=O)n(-c3c(C)ccnc3C(C)C)c3nc(-c4c(O)cccc4F)c(F)cc23)[C@@H](C)C1 [AMG 510, reference compound]
Residual rate (%) 0 min ([3]; 0 min, 0.5 μM): 100.00%
Residual rate (%) 15 min ([3]; 15 min, 0.5 μM): 93.77%
Residual rate (%) 30 min ([3]; 30 min, 0.5 μM): 85.72%
Residual rate (%) 60 min ([3]; 60 min, 0.5 μM): 82.51%
Residual rate (%) 120 min ([3]; 120 min, 0.5 μM): 64.44%
half-life at 0.5 μM ([3]; plasma): 3.31 h
Residual rate (%) 0 min ([4]; rat plasma, 37° C., 0 min): 100.00%
Residual rate (%) 15 min ([4]; rat plasma, 37° C., 15 min): 100.85%
Residual rate (%) 30 min ([4]; rat plasma, 37° C., 30 min): 93.03%
Residual rate (%) 60 min ([4]; rat plasma, 37° C., 60 min): 77.54%
Residual rate (%) 120 min ([4]; rat plasma, 37° C., 120 min): 56.77%
half-life at 0.5 μM ([4]; rat, plasma): 2.29 h
Residual rate (%) 0 min ([5]; mouse plasma, 37° C., 0 min): 100.00%
Residual rate (%) 15 min ([5]; mouse plasma, 37° C., 15 min): 97.50%
Residual rate (%) 30 min ([5]; mouse plasma, 37° C., 30 min): 82.58%
Residual rate (%) 60 min ([5]; mouse plasma, 37° C., 60 min): 81.82%
Residual rate (%) 120 min ([5]; mouse plasma, 37° C., 120 min): 63.23%
half-life at 0.5 μM ([5]; mouse, plasma): 3.08 h
Residual rate (%) 0 min ([6]; dog plasma, 37° C., 0 min): 100.00%
Residual rate (%) 15 min ([6]; dog plasma, 37° C., 15 min): 98.88%
Residual rate (%) 30 min ([6]; dog plasma, 37° C., 30 min): 101.14%
Residual rate (%) 60 min ([6]; dog plasma, 37° C., 60 min): 93.43%
Residual rate (%) 120 min ([6]; dog plasma, 37° C., 120 min): 91.92%
half-life at 0.5 μM ([6]; dog, plasma): 14.7 h
MRT ([7]; Plasma): 0.8 h
half-life ([7]; Plasma): 0.3 h
MRT ([7]; Tumor): 0.7 h
half-life ([7]; Tumor): 0.3 h
Kp ([7]; exposure in tumor to exposure in plasma, read-out: Ratio (T/P)): 0.42

SMILES: C=CC(=O)N1CCN(c2nc(=O)n(-c3c(SC)ccnc3C(C)C)c3nc(-c4c(O)cccc4F)c(F)cc23)[C@@H](C)C1 [Embodiment 1-1, P-4-((S)-4-acryloyl-2-methylpiperazin-1-yl)-6-fluoro-7-(2-fluoro-6-hydroxyphenyl)-1-(2-isopropyl-4-(methylthio)pyridin-3-yl)pyrido[2,3-d]pyrimidin-2(1H)-one]
IC50 [1]: 0.028 µM
IC50 [2]: 0.055 µM

SMILES: C=CC(=O)N1CCN(c2nc(=O)n(-c3c(SC)ccnc3C(C)C)c3nc(-c4c(F)cccc4SC)c(F)cc23)[C@@H](C)C1 [Embodiment 4, 4-((S)-4-Acryloyl-2-methylpiperazin-1-yl)-6-fluoro-7-(2-fluoro-6-(methylthio)phenyl)-1-(2-isopropyl-4-(methylthio)pyridin-3-yl)pyrido[2,3-d]pyrimidin-2(1H)-one]
IC50 ([1]; Homo sapiens, NCI-H358, 72 h): 0.048 µM
IC50 ([2]; Homo sapiens, MIA PaCa-2, 72 h): 0.047 µM
Tm (human KRAS G12C protein): 61.2 °C
ΔTm at 10 µM (human KRAS G12C protein): 11.7 °C
